Here are results for 22 molecules from US9353091B2 (priority 2009, dated 2016).

Assay [1] concerns the target T1, HCV polymerase 1A (Δ21 NS5B) (Hepatitis C virus genotype 1a, UniProt P27958).
T1 construct: 20 to 50 nM Δ21 NS5B
Put plainly: HCV Polymerase Inhibition Assay (1a). In kind it is biochemical. The procedure: (§1) Reaction volume was 50 μL. The reaction was terminated by the addition of 1 volume of 4 mM spermine in 10 mM Tris-Cl pH 8.0, 1 mM EDTA. After incubation for at least 15 minutes at room temperature, the precipitated RNA was captured by filtering through a GF/B filter (Millipore) in a 96 well format. The filter plate was washed three times with 200 μL, each of 2 mM spermine, 10 mM Tris-Cl pH 8.0, 1 mM EDTA, and 2 times with ethanol. After air-drying, 30 μL, of Microscint 20 scintillation cocktail (Packard) was added to each well, and the retained cpm were determined by scintillation counting. […] Retained cpm were plotted vs. inhibitor concentration and fit to equation 1 using non-linear regression (ref. 1) to obtain the IC50 values: Retained cpm=A[sqrt{(IC50+It−Et)^2+4*IC50*Et}−(IC50+It−Et)]
(§2) Ref. Morrison, J. F. and S. R. Stone. 1985. Approaches to the study and analysis of the inhibition of enzymes by slow- and tight-binding inhibitors. Comments Mol. Cell. Biophys. 2: 347-368.
(§3) The sequence of the template RNA used was: 5′-[…] […] […] […] […] […] […] […] […] […] […] […] […] […] […] […] […]-3′ (SEQ ID NO: 1)

Assay [2] deals with T2, HCV polymerase 1B (Δ21 NS5B) (Hepatitis C virus genotype 1b, UniProt P26663).
T2 construct: 20 to 50 nM Δ21 NS5B
Put plainly: HCV Polymerase Inhibition Assay (1b). It is filed as biochemical. The procedure: as §1, §2, §3

For assay [3], the system named is genotype 1a-H77 subgenomic replicon cell line. Put plainly: HCV Polymerase Replicon Assay (genotype 1a-H77, luciferase reporter). It is filed as cell-based. The note with it: Hepatitis C virus, 72 h, 1a-H77 replicon, three days. In general terms: Replicon systems follow genome replication, usually without infectious particles.
For assay [4], the system named is genotype 1b-Con1 subgenomic replicon cell line. Put plainly: HCV Polymerase Replicon Assay (genotype 1b-Con1, luciferase reporter). It is filed as cell-based. The note with it: Hepatitis C virus, 72 h, 1b-Con1 replicon, three days.

T2 sequence (P26663 2420-2989, stated change not applied): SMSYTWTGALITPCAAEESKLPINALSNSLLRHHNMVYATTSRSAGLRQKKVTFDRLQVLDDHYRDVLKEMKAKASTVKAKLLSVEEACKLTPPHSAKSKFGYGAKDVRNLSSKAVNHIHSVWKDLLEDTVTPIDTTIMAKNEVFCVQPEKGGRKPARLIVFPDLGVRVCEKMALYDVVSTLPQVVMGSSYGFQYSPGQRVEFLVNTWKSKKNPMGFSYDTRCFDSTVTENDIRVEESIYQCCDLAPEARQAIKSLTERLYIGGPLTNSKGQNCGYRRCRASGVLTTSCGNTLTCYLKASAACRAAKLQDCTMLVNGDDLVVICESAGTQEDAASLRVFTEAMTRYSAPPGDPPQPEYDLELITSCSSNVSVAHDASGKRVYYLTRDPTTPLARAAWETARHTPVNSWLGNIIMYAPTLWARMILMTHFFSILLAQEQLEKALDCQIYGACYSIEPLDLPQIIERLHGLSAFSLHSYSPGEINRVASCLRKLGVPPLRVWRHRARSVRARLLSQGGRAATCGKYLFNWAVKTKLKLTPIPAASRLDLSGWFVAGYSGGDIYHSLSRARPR
T1 sequence (P27958 2421-2990, stated change not applied): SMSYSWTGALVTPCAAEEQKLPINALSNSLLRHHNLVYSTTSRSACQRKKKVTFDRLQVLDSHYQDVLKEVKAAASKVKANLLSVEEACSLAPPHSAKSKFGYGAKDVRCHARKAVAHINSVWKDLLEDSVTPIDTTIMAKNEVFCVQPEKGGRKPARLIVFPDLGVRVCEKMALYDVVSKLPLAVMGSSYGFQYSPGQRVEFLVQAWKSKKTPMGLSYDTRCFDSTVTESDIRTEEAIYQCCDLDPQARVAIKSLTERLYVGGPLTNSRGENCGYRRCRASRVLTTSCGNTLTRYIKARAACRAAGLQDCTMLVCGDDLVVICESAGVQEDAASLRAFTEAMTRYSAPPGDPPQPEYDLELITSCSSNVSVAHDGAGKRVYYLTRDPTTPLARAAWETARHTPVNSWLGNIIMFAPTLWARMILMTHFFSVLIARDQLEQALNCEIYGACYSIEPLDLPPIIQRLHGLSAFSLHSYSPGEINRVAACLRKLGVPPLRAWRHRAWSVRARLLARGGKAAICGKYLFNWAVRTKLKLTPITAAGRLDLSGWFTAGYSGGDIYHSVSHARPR

A word on the IC50: it is the concentration needed to halve the response being measured. As to `COc1c(-c2c[nH]c(=O)[nH]c2=O)cc(-c2ccc3cc(NS(C)(=O)=O)ccc3c2)cc1C(C)(C)C` [compound 1, N-(6-(3-tert-butyl-5-(2,4-dioxo-1,2,3,4-tetrahydropyrimidin-5-yl)-4-methoxyphenyl)naphthalen-2-yl)methanesulfonamide], the IC50 in assay [1] and in assay [2] was 100 to 1000 nM throughout.
For orientation: EC50 means the concentration that produces a half-maximal response. For the molecule `COc1c(-c2ccc3c(c2)CC=C3CNS(C)(=O)=O)cc(-c2c[nH]c(=O)[nH]c2=O)cc1C(C)(C)C` [compound 3, N-((6-(3-tert-butyl-5-(2,4-dioxo-1,2,3,4-tetrahydropyrimidin-5-yl)-2-methoxyphenyl)-1H-inden-3-yl)methyl)methanesulfonamide], the IC50 in assay [1] and in assay [2] was below 10 nM each time. The EC50 in assay [3] and in assay [4] was at most 10 nM throughout.
For the molecule `COc1c(/C=C/c2ccc(NS(C)(=O)=O)cc2)cc(-c2c[nH]c(=O)[nH]c2=O)cc1C(C)(C)C` [compound 4, (E)-N-(4-(3-tert-butyl-5-(2,4-dioxo-1,2,3,4-tetrahydropyrimidin-5-yl)-2-methoxystyryl)phenyl)methanesulfonamide], the EC50 in assay [3] and in assay [4] was at most 10 nM each time.
For `COc1c(Br)cc(-c2c[nH]c(=O)[nH]c2=O)cc1C(C)(C)C` [compound 5, 5-(3-bromo-5-tert-butyl-4-methoxyphenyl)pyrimidine-2,4(1H,3H)-dione], the IC50 in assay [1] and in assay [2] was above 1000 nM each time. Further, the EC50 in assay [3] and in assay [4] was above 1000 nM each time.
Consider `COc1c(-c2ccc3c(c2)CC=C3CNS(C)(=O)=O)cc(-c2cn(C)c(=O)[nH]c2=O)cc1C(C)(C)C` [compound 6, N-((6-(3-tert-butyl-2-methoxy-5-(1-methyl-2,4-dioxo-1,2,3,4-tetrahydropyrimidin-5-yl)phenyl)-1H-inden-3-yl)methyl)methanesulfonamide], for which the IC50 in assay [1] is below 10 nM; in assay [2] it was 10 to 100 nM. For the same molecule, the values for the EC50 in assay [3] and in assay [4] were 100 to 1000 nM and at most 10 nM, respectively.
In the same order, the values of `COc1c(-c2ccc3cc(NS(C)(=O)=O)ccc3c2)cc(-c2cn(C)c(=O)[nH]c2=O)cc1C(C)(C)C` [compound 7, N-(6-(3-tert-butyl-2-methoxy-5-(1-methyl-2,4-dioxo-1,2,3,4-tetrahydropyrimidin-5-yl)phenyl)naphthalen-2-yl)methanesulfonamide] are below 10 nM, 10 to 100 nM, 10 to 100 nM and at most 10 nM.
Turning to `COc1c(-c2ccc3cc(NS(C)(=O)=O)ccc3c2)cc(-c2cn(C)c(=O)n(C)c2=O)cc1C(C)(C)C` [compound 8, N-(6-(3-tert-butyl-5-(1,3-dimethyl-2,4-dioxo-1,2,3,4-tetrahydropyrimidin-5-yl)-2-methoxyphenyl)naphthalen-2-yl)methanesulfonamide], the IC50 in assay [1] and in assay [2] was 100 to 1000 nM in each case. The EC50 was in the range of 100 to 1000 nM in assay [3] and 10 to 100 nM in assay [4].
For `COc1c(-c2ccc3cc(NS(C)(=O)=O)ccc3c2)cc(-c2ccc[nH]c2=O)cc1C(C)(C)C` [compound 9, N-(6-(3-tert-butyl-2-methoxy-5-(2-oxo-1,2-dihydropyridin-3-yl)phenyl)naphthalen-2-yl)methanesulfonamide], the results for the IC50 in assay [1] and in assay [2] were below 10 nM and 10 to 100 nM, respectively. The EC50 in assay [3] and in assay [4] was at most 10 nM throughout.
`COc1c(-c2ccc3cc(NS(C)(=O)=O)ccc3c2)cc(-c2ccc(=O)[nH]c2)cc1C(C)(C)C` [compound 10, N-(6-(3-tert-butyl-2-methoxy-5-(6-oxo-1,6-dihydropyridin-3-yl)phenyl)naphthalen-2-yl)methanesulfonamide]: the figures for the IC50 in assay [1] and in assay [2] were 100 to 1000 nM and above 1000 nM, respectively. For the same molecule, the EC50 in assay [3] was 100 to 1000 nM; in assay [4], above 1000 nM.
As to `COc1c(-c2ccc3cc(NS(C)(=O)=O)ccc3c2)cc(-c2ccc(F)cc2F)cc1C(C)(C)C` [compound 11, N-(6-(5-tert-butyl-2′,4′-difluoro-4-methoxybiphenyl-3-yl)naphthalen-2-yl)methanesulfonamide], the IC50 in assay [1] and in assay [2] was above 1000 nM throughout. Besides, the EC50 in assay [4] was above 1000 nM.
For `COc1c(-c2ccc3c(c2)CCC3=O)cc(-c2c[nH]c(=O)[nH]c2=O)cc1C(C)(C)C` [compound 12, 5-(3-tert-butyl-4-methoxy-5-(1-oxo-2,3-dihydro-1H-inden-5-yl)phenyl)pyrimidine-2,4(1H,3H)-dione], the IC50 in assay [1] and in assay [2] was 10 to 100 nM throughout. Also, the EC50 in assay [3] and in assay [4] was 100 to 1000 nM throughout.
Take `COc1c(-c2ccc3c(c2)CCC3O)cc(-c2c[nH]c(=O)[nH]c2=O)cc1C(C)(C)C` (stereo not drawn) [compound 13, 5-(3-tert-butyl-5-(1-hydroxy-2,3-dihydro-1H-inden-5-yl)-4-methoxyphenyl)pyrimidine-2,4(1H,3H)-dione]: the IC50 in assay [1] and in assay [2] was 100 to 1000 nM in each case. The EC50 in assay [3] and in assay [4] was above 1000 nM throughout.
Turning to `COc1c(-c2ccc3cc(NS(C)(=O)=O)ccc3c2)cc(NC(N)=O)cc1C(C)(C)C` [compound 14, N-(6-(3-tert-butyl-2-methoxy-5-ureidophenyl)naphthalen-2-yl)methanesulfonamide], the IC50 is below 10 nM in assay [1] and 10 to 100 nM in assay [2]. Moreover, the figures for the EC50 in assay [3] and in assay [4] were 100 to 1000 nM and 10 to 100 nM, respectively.
With `COc1c(-c2ccc3cc(NS(C)(=O)=O)ccc3c2)cc(N2C(=O)CN=C2O)cc1C(C)(C)C` [compound 15, N-(6-(3-tert-butyl-5-(2-hydroxy-5-oxo-4,5-dihydro-1H-imidazol-1-yl)-2-methoxyphenyl)naphthalen-2-yl)methanesulfonamide], the IC50 in assay [1] was below 10 nM; in assay [2] it was 10 to 100 nM. Also, the values for the EC50 in assay [3] and in assay [4] were 100 to 1000 nM and 10 to 100 nM, respectively.
With `COc1c(-c2ccc3cc(NS(C)(=O)=O)ccc3c2)cc(N2CC(=O)NC2=O)cc1C(C)(C)C` [compound 16, N-(6-(3-tert-butyl-5-(2,4-dioxoimidazolidin-1-yl)-2-methoxyphenyl)naphthalen-2-yl)methanesulfonamide], the IC50 in assay [1] and in assay [2] was 10 to 100 nM in each case. For the same molecule, the EC50 in assay [3] and in assay [4] was 100 to 1000 nM throughout.
In the case of `COc1c(-c2ccc3cc(NS(C)(=O)=O)ccc3c2)cc(NC(=O)Nc2ccccc2)cc1C(C)(C)C` [compound 17, N-(6-(3-tert-butyl-2-methoxy-5-(3-phenylureido)phenyl)naphthalen-2-yl)methanesulfonamide], the IC50 in assay [1] and in assay [2] was above 1000 nM each time.
As to `COc1c(-c2ccc3cc(NS(C)(=O)=O)ccc3c2)cc(NC(=O)NC(C)C)cc1C(C)(C)C` [compound 18, N-(6-(3-tert-butyl-5-(3-isopropylureido)-2-methoxyphenyl)naphthalen-2-yl)methanesulfonamide], the IC50 in assay [1] and in assay [2] was above 1000 nM in each case.
On to `COc1c(-c2ccc3cc(NS(C)(=O)=O)ccc3c2)cc(NC(=O)CNC(=O)OC(C)(C)C)cc1C(C)(C)C` [compound 19, tert-butyl 2-(3-tert-butyl-4-methoxy-5-(6-(methylsulfonamido)naphthalen-2-yl)phenylamino)-2-oxoethylcarbamate], for which the IC50 in assay [1] and in assay [2] was above 1000 nM each time.
As for `COc1c(-c2ccc3cc(NS(C)(=O)=O)ccc3c2)cc(NC(=O)CN)cc1C(C)(C)C` [compound 20, 2-amino-N-(3-tert-butyl-4-methoxy-5-(6-(methylsulfonamido)naphthalen-2-yl)phenyl)acetamide], the half-inhibitory concentration (IC50) in assay [1] and in assay [2] was above 1000 nM in each case.
Take `COc1c(-c2ccc3cc(NS(C)(=O)=O)ccc3c2)cc(NC(=O)CCN)cc1C(C)(C)C` [compound 24, 3-amino-N-(3-tert-butyl-4-methoxy-5-(6-(methylsulfonamido)naphthalen-2-yl)phenyl)propanamide]: the IC50 in assay [1] and in assay [2] was above 1000 nM throughout.
For the molecule `COc1c(-c2ccc3cc(NS(C)(=O)=O)ccc3c2)cc(C(=O)c2ccccc2)cc1C(C)(C)C` [compound 31, N-(6-(5-benzoyl-3-tert-butyl-2-methoxyphenyl)naphthalen-2-yl)methanesulfonamide], the IC50 in assay [1] and in assay [2] was above 1000 nM throughout.
As for `COc1c(/C=C/c2ccc(NS(C)(=O)=O)cc2)cc(C(=O)c2ccccc2)cc1C(C)(C)C` [compound 32, (E)-N-(4-(5-benzoyl-3-tert-butyl-2-methoxystyryl)phenyl)methanesulfonamide], the IC50 in assay [1] and in assay [2] was above 1000 nM each time.
